Measurements reported in PubChem BioAssay AID651796 (The Scripps Research Institute Molecular Screening Center, 2012).
Activity calls are given as the source filed them. No rule for the calls is given here.

Biological target: Nuclear receptor coactivator 1 (Homo sapiens) (UniProt Q15788)
Test: NCOA1-driven reporter transcription inhibition – cell-based, luminescence, late-stage follow-up (AID 651796)
Conditions: cell-based SRC1 reporter

Sequence of Nuclear receptor coactivator 1 (Homo sapiens) (Q15788 whole entry, looked up): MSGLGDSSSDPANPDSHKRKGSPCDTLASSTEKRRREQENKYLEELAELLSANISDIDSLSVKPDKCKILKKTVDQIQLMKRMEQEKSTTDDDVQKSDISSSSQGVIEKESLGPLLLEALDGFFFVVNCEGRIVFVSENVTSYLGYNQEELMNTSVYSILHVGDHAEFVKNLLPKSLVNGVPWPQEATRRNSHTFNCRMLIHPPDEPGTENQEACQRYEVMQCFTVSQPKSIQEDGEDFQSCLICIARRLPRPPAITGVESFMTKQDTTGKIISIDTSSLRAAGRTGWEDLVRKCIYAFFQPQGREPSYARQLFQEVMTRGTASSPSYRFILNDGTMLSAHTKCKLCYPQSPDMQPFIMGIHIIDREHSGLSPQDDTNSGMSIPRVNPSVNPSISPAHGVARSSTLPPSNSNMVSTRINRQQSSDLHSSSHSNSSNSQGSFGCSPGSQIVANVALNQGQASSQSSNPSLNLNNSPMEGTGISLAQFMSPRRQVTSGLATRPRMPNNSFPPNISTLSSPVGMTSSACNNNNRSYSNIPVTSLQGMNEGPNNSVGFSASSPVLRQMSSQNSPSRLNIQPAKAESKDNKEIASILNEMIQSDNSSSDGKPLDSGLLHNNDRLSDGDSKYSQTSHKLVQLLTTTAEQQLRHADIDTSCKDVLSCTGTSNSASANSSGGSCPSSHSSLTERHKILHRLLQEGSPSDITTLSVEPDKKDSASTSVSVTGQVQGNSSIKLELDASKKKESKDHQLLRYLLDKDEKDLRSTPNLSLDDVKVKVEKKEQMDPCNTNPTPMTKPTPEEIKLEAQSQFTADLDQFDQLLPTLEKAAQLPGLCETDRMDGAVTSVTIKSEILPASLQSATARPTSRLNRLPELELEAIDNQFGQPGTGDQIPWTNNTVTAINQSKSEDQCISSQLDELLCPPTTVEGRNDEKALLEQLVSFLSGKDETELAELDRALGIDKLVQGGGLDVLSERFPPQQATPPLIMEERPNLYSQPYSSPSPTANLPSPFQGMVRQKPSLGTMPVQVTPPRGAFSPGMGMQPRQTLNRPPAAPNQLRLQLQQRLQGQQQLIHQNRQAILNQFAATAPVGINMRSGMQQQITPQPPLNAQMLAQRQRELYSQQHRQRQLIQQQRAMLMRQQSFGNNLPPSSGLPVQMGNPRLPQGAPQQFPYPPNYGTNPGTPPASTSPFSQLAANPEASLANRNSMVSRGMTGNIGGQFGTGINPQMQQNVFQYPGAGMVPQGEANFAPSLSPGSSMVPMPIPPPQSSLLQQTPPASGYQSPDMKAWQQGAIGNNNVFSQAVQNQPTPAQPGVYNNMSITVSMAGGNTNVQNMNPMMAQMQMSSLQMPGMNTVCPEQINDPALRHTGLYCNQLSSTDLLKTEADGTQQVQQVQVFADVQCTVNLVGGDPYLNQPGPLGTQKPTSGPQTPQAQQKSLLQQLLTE

| IC50 | SMILES |
| --- | --- |
| 9.94 µM | COc1ccc(NC(=O)CN(C)C(=O)C2(c3ccccc3)CCCC2)cc1 |
| inactive | COc1ccc(Nc2ncnc3ccc(Br)cc23)c(OC)c1 |
